Assay [1] has as its target NAMPT (human, recombinant, C-terminally His-tagged) (Homo sapiens, UniProt P43490). As to the kind of experiment: Time-Resolved Fluorescence Resonance Energy Transfer (TR-FRET) Binding Assay of NAMPT. To be noted: without substrates; 6.8 nM NAMPT, 200 nM probe, 3 hours equilibration. The method, boiled down:
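Compounds, diluted in half-log steps, are mixed with enzyme (6.8 nM), fluorescent probe (200 nM) and Tb-anti-His antibody (1 nM) in pH 7.5 HEPES buffer containing 10 mM MgCl2 and 1 mM DTT. Plates equilibrate 3 h at room temperature; normalized FRET ratios are fitted by four-parameter logistic regression for IC50.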
(In TR-FRET formats the signal depends on donor and acceptor labels being close together.)

A further assay addresses NAMPT (Homo sapiens, UniProt P43490). In words: TR-FRET Binding Assay of NAMPT with PRPP. The note with it: with 200 μM PRPP and 2.5 mM ATP; 2 nM NAMPT, 2 nM probe, 16 hours equilibration. The method, boiled down:
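Compounds were mixed with 2 nM His-tagged NAMPT, 2 nM probe, 1 nM terbium anti-His antibody, 200 μM PRPP and 2.5 mM ATP in assay buffer with 2% DMSO, then left 16 hours to permit possible enzymatic processing of compounds before time-resolved FRET was measured.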

For the next assay, the system named is PC3 cells. As to the kind of experiment: NAMPT Cell Proliferation Assay. The assay is classed as cell-based. The note with it: Homo sapiens, PC-3, 120 h, 5 days incubation, cell viability by Cell Titer Glo. The method, boiled down: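 Following overnight attachment in RPMI with 10% heat-inactivated FBS, PC3 cells at 500 per well receive compounds spanning 10 μM down to 1×10^−5 μM. Growth is assessed by luminescent viability read after 5 days.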
(In ATP-based viability assays light output follows the ATP content of the culture.)

Each structure is given as a SMILES string.

NAMPT (human, recombinant, C-terminally His-tagged), sequence (P43490 whole entry): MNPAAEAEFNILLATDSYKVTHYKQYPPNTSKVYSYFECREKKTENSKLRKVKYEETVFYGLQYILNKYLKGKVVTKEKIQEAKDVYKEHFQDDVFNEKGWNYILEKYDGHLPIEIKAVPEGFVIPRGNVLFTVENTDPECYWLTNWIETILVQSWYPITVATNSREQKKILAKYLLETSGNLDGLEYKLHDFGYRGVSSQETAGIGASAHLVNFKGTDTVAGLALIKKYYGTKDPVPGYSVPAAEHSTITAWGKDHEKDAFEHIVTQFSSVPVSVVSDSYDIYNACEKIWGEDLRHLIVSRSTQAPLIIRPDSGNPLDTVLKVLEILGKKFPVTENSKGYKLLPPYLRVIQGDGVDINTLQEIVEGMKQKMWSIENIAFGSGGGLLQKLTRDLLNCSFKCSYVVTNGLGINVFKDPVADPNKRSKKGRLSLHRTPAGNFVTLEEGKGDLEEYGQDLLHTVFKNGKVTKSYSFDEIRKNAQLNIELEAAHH
NAMPT, sequence (P43490 whole entry): as above

The term IC50 denotes the midpoint of a concentration-inhibition curve. For `O=C(NCc1ccn2ccnc2c1)c1ccc(-c2cnn(CC3CCNCC3)c2)s1` [Example 485, N-(imidazo[1,2-a]pyridin-7-ylmethyl)-5-[1-(piperidin-4-ylmethyl)-1H-pyrazol-4-yl]thiophene-2-carboxamide], the half-maximal inhibitory concentration (IC50) in assay [1] came to 95.6 nM; at NAMPT, 0.205 nM; in the assay on PC3 cells, 34.5 nM.

For the molecule `O=C(NCc1ccn2ccnc2c1)c1ccc(C2CCN(C(=O)c3ccoc3)C2)cc1` (stereo not drawn) [Example 612, 4-[1-(furan-3-ylcarbonyl)pyrrolidin-3-yl]-N-(imidazo[1,2-a]pyridin-7-ylmethyl)benzamide], the IC50 in assay [1] worked out at 706 nM; on NAMPT it was 0.919 nM; in the assay with PC3 cells, 695 nM.

As to `CC(C)(O)C(=O)N1CC[C@@H](Oc2ccc(NC(=O)NCc3ccn4ccnc4c3)cc2)C1` [Example 334, 1-(4-{[(3R)-1-(2-hydroxy-2-methylpropanoyl)pyrrolidin-3-yl]oxy}phenyl)-3-(imidazo[1,2-a]pyridin-7-ylmethyl)urea], the IC50 was 80.9 nM in assay [1], 0.345 nM at NAMPT and 21.9 nM in the assay with PC3 cells.

For the molecule `O=C(NCc1ccn2ccnc2c1)c1ccc(C2CCN(C(=O)c3cnccn3)CC2)cc1` [Example 523, N-(imidazo[1,2-a]pyridin-7-ylmethyl)-4-[1-(pyrazin-2-ylcarbonyl)piperidin-4-yl]benzamide], the results for the IC50 (in assay [1]; on NAMPT; in the assay with PC3 cells) were 343 nM, 0.422 nM and 17.1 nM, respectively.

With `O=C(NCCCCC1CCN(C(=O)CN2CCOCC2)CC1)Nc1ccc2nccn2c1` [Example 71, 1-imidazo[1,2-a]pyridin-6-yl-3-{4-[1-(morpholin-4-ylacetyl)piperidin-4-yl]butyl}urea], the IC50 in assay [1] is 754 nM; at NAMPT, 0.348 nM; in the assay on PC3 cells it was 66.7 nM.

For the molecule `CC(C)CC(=O)N1CCC(c2ccc(C(=O)NCc3cn4ccnc4cn3)cc2)CC1` [Example 816, N-(imidazo[1,2-a]pyrazin-6-ylmethyl)-4-[1-(3-methylbutanoyl)piperidin-4-yl]benzamide], the IC50 in assay [1] is 46.1 nM; at NAMPT, 1.58 nM; in the assay with PC3 cells, 4.82 nM.

For `CC(C)C(C)C(=O)N1CCC(c2ccc(C(=O)NCc3ccn4ccnc4c3)cc2)CC1` (stereo not drawn) [Example 536, 4-[1-(2,3-dimethylbutanoyl)piperidin-4-yl]-N-(imidazo[1,2-a]pyridin-7-ylmethyl)benzamide], the IC50 in assay [1] was determined as 77.6 nM; on NAMPT it was 0.202 nM; with PC3 cells it was 3.04 nM.

For the molecule `O=C(NCc1ccn2ccnc2c1)c1ccc(C2CCN(C(=O)c3cccnc3)C2)cc1` (stereo not drawn) [Example 609, N-(imidazo[1,2-a]pyridin-7-ylmethyl)-4-[1-(pyridin-3-ylcarbonyl)pyrrolidin-3-yl]benzamide], the IC50 was 598 nM in assay [1], 0.62 nM at NAMPT and 142 nM in the assay with PC3 cells.

In the case of `O=C(NCc1ccc2nccn2c1)c1ccc(OC2CCN(C(=O)CC3CCCO3)CC2)cc1` (stereo not drawn) [Example 173, N-(imidazo[1,2-a]pyridin-6-ylmethyl)-4-{[1-(tetrahydrofuran-2-ylacetyl)piperidin-4-yl]oxy}benzamide], the values for the half-inhibitory concentration (IC50) (in assay [1]; on NAMPT; in the assay on PC3 cells) were 1510 nM, 1.24 nM and 50.1 nM, respectively.

Regarding `CC(C)C(=O)N1CC(Oc2ccc(NC(=O)NCc3ccn4ccnc4c3)cc2)C1` [Example 425, 1-(imidazo[1,2-a]pyridin-7-ylmethyl)-3-(4-{[1-(2-methylpropanoyl)azetidin-3-yl]oxy}phenyl)urea], the values for the IC50 (in assay [1]; at NAMPT; with PC3 cells) were 153 nM, 0.227 nM and 69 nM, respectively.

`O=C(NCc1ccc2nccn2c1)c1ccc(C2=CCN(C(=O)CC3CCOCC3)CC2)cc1` [Example 93, N-(imidazo[1,2-a]pyridin-6-ylmethyl)-4-[1-(tetrahydro-2H-pyran-4-ylacetyl)-1,2,3,6-tetrahydropyridin-4-yl]benzamide]: the results for the 50% inhibitory concentration (IC50) (in assay [1]; on NAMPT; in the assay on PC3 cells) were 389 nM, 1.39 nM and 7.13 nM, respectively.

With `O=C(NCc1ccn2ccnc2c1)c1ccc(C2CCN(C(=O)C3CCS(=O)(=O)CC3)CC2)cc1` [Example 234, 4-{1-[(1,1-dioxidotetrahydro-2H-thiopyran-4-yl)carbonyl]piperidin-4-yl}-N-(imidazo[1,2-a]pyridin-7-ylmethyl)benzamide], the concentration for half-maximal inhibition (IC50) in assay [1] worked out at 904 nM; on NAMPT, 0.736 nM; in the assay with PC3 cells, 105 nM.

With `CC(C)OCC(=O)N1CC=C(c2ccc(C(=O)NCc3ccc4nccn4c3)cc2)CC1` [Example 98, N-(imidazo[1,2-a]pyridin-6-ylmethyl)-4-{1-[(propan-2-yloxy)acetyl]-1,2,3,6-tetrahydropyridin-4-yl}benzamide], the IC50 in assay [1] was 120 nM; at NAMPT, 0.367 nM; in the assay on PC3 cells, 19.4 nM.

`O=C(Nc1ccc(C(=O)NCC2CCCCO2)cc1)Nc1ccc2nccn2c1` (stereo not drawn) [Example 23]: the IC50 in assay [1] stood at 281 nM; at NAMPT, 0.409 nM; with PC3 cells, 41.5 nM.

Turning to `CC(C)OCC(=O)N1CCC(c2ccc(NC(=O)NCc3ccn4ccnc4c3)cc2)C1` (stereo not drawn) [Example 384, 1-(imidazo[1,2-a]pyridin-7-ylmethyl)-3-(4-{1-[(propan-2-yloxy)acetyl]pyrrolidin-3-yl}phenyl)urea], the IC50 in assay [1] was determined as 406 nM; on NAMPT, 0.375 nM; in the assay on PC3 cells, 51.7 nM.

Turning to `Cn1cccc1C(=O)N1CCC(c2ccc(C(=O)NCc3ccn4ccnc4c3)s2)C1` (stereo not drawn) [Example 771, N-(imidazo[1,2-a]pyridin-7-ylmethyl)-5-{1-[(1-methyl-1H-pyrrol-2-yl)carbonyl]pyrrolidin-3-yl}thiophene-2-carboxamide], the figures for the IC50 (in assay [1]; at NAMPT; in the assay on PC3 cells) were 70.8 nM, 0.573 nM and 3.47 nM, respectively.

On to `O=C(CCc1ccccc1)Nc1ccc(NC(=O)NCc2ccc3nccn3c2)cc1` [Example 279, N-(4-{[(imidazo[1,2-a]pyridin-6-ylmethyl)carbamoyl]amino}phenyl)-3-phenylpropanamide], for which the IC50 stood at 68.8 nM in assay [1], 0.437 nM on NAMPT and 869 nM with PC3 cells.

In the case of `COCCC(=O)N(C[C@H]1CCCO1)c1ncc(C(=O)NCc2ccc3nccn3c2)s1` [Example 145, N-(imidazo[1,2-a]pyridin-6-ylmethyl)-2-{(3-methoxypropanoyl)[(2R)-tetrahydrofuran-2-ylmethyl]amino}-1,3-thiazole-5-carboxamide], the IC50 came to 191 nM in assay [1], 1.08 nM at NAMPT and 6.01 nM in the assay with PC3 cells.

For `O=C(NCc1ccn2ccnc2c1)c1ccc(-c2cnn(CC3CCC3)c2)o1` [Example 481, 5-[1-(cyclobutylmethyl)-1H-pyrazol-4-yl]-N-(imidazo[1,2-a]pyridin-7-ylmethyl)furan-2-carboxamide], the IC50 came to 57.2 nM in assay [1], 0.176 nM at NAMPT and 5.79 nM in the assay with PC3 cells.

Regarding `CCCn1cc(-c2ccc(NC(=O)NCc3ccc4nccn4c3)cc2)cn1` [Example 360, 1-(imidazo[1,2-a]pyridin-6-ylmethyl)-3-[4-(1-propyl-1H-pyrazol-4-yl)phenyl]urea], the IC50 in assay [1] was found to be 291 nM; on NAMPT it was 0.717 nM; in the assay on PC3 cells, 663 nM.

For `COCCC(=O)N(Cc1ccc(C#N)cc1)c1ncc(C(=O)NCc2ccc3nccn3c2)s1` [Example 56, 2-[(4-cyanobenzyl)(3-methoxypropanoyl)amino]-N-(imidazo[1,2-a]pyridin-6-ylmethyl)-1,3-thiazole-5-carboxamide], the IC50 in assay [1] stood at 158 nM; on NAMPT it was 1.07 nM; in the assay on PC3 cells it was 8.86 nM.

On to `O=C(NCc1ccn2ccnc2c1)c1ccc(-c2cnn(C[C@@H]3CCCO3)c2)o1` [Example 742, N-(imidazo[1,2-a]pyridin-7-ylmethyl)-5-{1-[(2S)-tetrahydrofuran-2-ylmethyl]-1H-pyrazol-4-yl}furan-2-carboxamide], for which the IC50 in assay [1] turned out to be 241 nM; at NAMPT, 0.526 nM; in the assay on PC3 cells, 10.5 nM.

For the molecule `CC(C)C(=O)N1CCC(c2ncc(C(=O)NCc3ccn4ccnc4c3)s2)C1` (stereo not drawn) [Example 805, N-(imidazo[1,2-a]pyridin-7-ylmethyl)-2-[1-(2-methylpropanoyl)pyrrolidin-3-yl]-1,3-thiazole-5-carboxamide], the half-inhibitory concentration (IC50) in assay [1] is 3920 nM; on NAMPT it was 1.12 nM; in the assay with PC3 cells it was 7820 nM.

`CC(C)OCC(=O)N1CCC(Oc2ccc(C(=O)NCc3ccc4nccn4c3)cc2)CC1` [Example 167, N-(imidazo[1,2-a]pyridin-6-ylmethyl)-4-({1-[(propan-2-yloxy)acetyl]piperidin-4-yl}oxy)benzamide]: the values for the IC50 (in assay [1]; on NAMPT; in the assay on PC3 cells) were 1730 nM, 2.52 nM and 104 nM, respectively.

As to `O=C(NCc1ccn2ccnc2c1)c1ccc(C2=CCN(C(=O)CC3CC3)CC2)o1` [Example 750, 5-[1-(cyclopropylacetyl)-1,2,3,6-tetrahydropyridin-4-yl]-N-(imidazo[1,2-a]pyridin-7-ylmethyl)furan-2-carboxamide], the results for the IC50 (in assay [1]; at NAMPT; in the assay with PC3 cells) were 1530 nM, 1.54 nM and 794 nM, respectively.
